For one assay, the system named is influenza B. The class given is cell-based. The following applies: FluB, 24 hours, control 455 ± 022.
In another assay the test system is parainfluenza 2. Type of assay: cell-based. The following applies: Para2, 24 hours, control 243 ± 012.
The next assay deals with RSV. The class given is cell-based. The following applies: 24 hours, control 116 ± 012.
The test system of another assay is influenza A. The class given is cell-based. Particulars: FluA, 24 hours, control 189 ± 012.
In the next assay the test system is parainfluenza 1. The class given is cell-based. The following applies: Para1, 24 hours, control 245 ± 018.
For another assay, the system named is adenovirus. Type of assay: cell-based. Particulars: Adeno, 24 hours, control 863 ± 100.
The next assay relates to human coronavirus 229E. The assay is described as follows: Replication of human coronavirus 229E (inventors' data, E64). Particulars: no conditions given. Type of assay: cell-based.
For a further assay, the system named is parainfluenza 3. The class given is cell-based. The following applies: Para3, 24 hours, control 142 ± 014.
For a further assay, the system named is SARS-coronavirus. Particulars: Yount et al. PNAS 100:12995-13000 (2003); cited from earlier work.
Where [1] appears, read: Glycycrrhizin 0.152 micrograms/ml.
Setting [2] is: Glycycrrhizin 1.216 micrograms/ml.
The mark [3] stands for this setting: Glycycrrhizin 6.08 micrograms/ml.

Like-named read-outs stand apart in the source and are kept apart here.

Regarding `CC(C)C[C@H](NC(=O)[C@H]1O[C@@H]1C(=O)O)C(=O)NCCCCN=C(N)N` (relative stereo) [E64, trans-Epoxysuccinyl-L-leucylamido-(4-guanidino)butane], the “Number of Infected Foci In R-Mix Cell Cultures” value (from here on “Number”) in the assay with influenza B (E64 0.5 micrograms/ml) came to 398; with influenza B (E64 5 micrograms/ml), 328; in the assay on influenza B (E64 10 micrograms/ml) it was 323; in the assay on parainfluenza 2 (E64 0.5 micrograms/ml), 223; in the assay with parainfluenza 2 (E64 5 micrograms/ml) it was 221; in the assay with parainfluenza 2 (E64 10 micrograms/ml) it was 205. For the same compound, the “Number” value with RSV (E64 0.5 micrograms/ml) is listed as 107; in the assay on RSV (E64 5 micrograms/ml), 115; in the assay on RSV (E64 10 micrograms/ml), 103; in the assay on influenza A (E64 0.5 micrograms/ml) it was 174; in the assay on influenza A (E64 5 micrograms/ml), 179; in the assay with influenza A (E64 10 micrograms/ml), 176. The “Number” value in the assay with parainfluenza 1 (E64 0.5 micrograms/ml) worked out at 251; with parainfluenza 1 (E64 5 micrograms/ml) it was 243; in the assay on parainfluenza 1 (E64 10 micrograms/ml) it was 207; in the assay with adenovirus (E64 0.5 micrograms/ml), 904; with adenovirus (E64 5 micrograms/ml) it was 868; in the assay with adenovirus (E64 10 micrograms/ml) it was 865. For the same compound, the “Number” value in the assay with parainfluenza 3 (E64 0.5 micrograms/ml) was 127; in the assay on parainfluenza 3 (E64 5 micrograms/ml), 99. Further, in the assay with human coronavirus 229E, the “replication of human coronavirus 229E” value is recorded as “inhibition in replication”.

For the compound `CCOC(=O)[C@H]1O[C@@H]1C(=O)N[C@@H](CC(C)C)C(=O)NCCC(C)C` [(2S,3S)transepoxysuccinyl-L-leucylamido-3-methylbutane ethyl ester], the “replication of SARS-coronavirus” value in the assay on SARS-coronavirus was “inhibition in replication”.

For the compound `CCCCC[C@H](CC(=O)NO)C(=O)N[C@H](C(=O)N1CCC[C@H]1CO)C(C)C` [Actinonin], the “Number” value was 317 with influenza B (Actinonin 10 micrograms/ml); 260 in the assay on influenza B (Actinonin 20 micrograms/ml); 190 in the assay on influenza B (Actinonin 40 micrograms/ml); 220 in the assay on parainfluenza 2 (Actinonin 10 micrograms/ml); 196 in the assay on parainfluenza 2 (Actinonin 20 micrograms/ml); 151 in the assay with parainfluenza 2 (Actinonin 40 micrograms/ml). Moreover, the “Number” value is listed as 103 with RSV (Actinonin 10 micrograms/ml); 64 in the assay on RSV (Actinonin 20 micrograms/ml); 41 in the assay with RSV (Actinonin 40 micrograms/ml); 171 with influenza A (Actinonin 10 micrograms/ml); 122 in the assay on influenza A (Actinonin 20 micrograms/ml); 118 in the assay on influenza A (Actinonin 40 micrograms/ml). In addition, the “Number” value with parainfluenza 1 (Actinonin 10 micrograms/ml) worked out at 222; with parainfluenza 1 (Actinonin 20 micrograms/ml), 191; in the assay on parainfluenza 1 (Actinonin 40 micrograms/ml) it was 160; in the assay with adenovirus (Actinonin 10 micrograms/ml) it was 781; in the assay with adenovirus (Actinonin 20 micrograms/ml) it was 383; in the assay with adenovirus (Actinonin 40 micrograms/ml), 147. The “Number” value was determined as 115 with parainfluenza 3 (Actinonin 10 micrograms/ml), 104 in the assay on parainfluenza 3 (Actinonin 20 micrograms/ml) and 75 with parainfluenza 3 (Actinonin 40 micrograms/ml).

As for `CC1(C)[C@@H](O[C@H]2O[C@H](C(=O)O)[C@@H](O)[C@H](O)[C@H]2O[C@@H]2O[C@H](C(=O)O)[C@@H](O)[C@H](O)[C@H]2O)CC[C@]2(C)[C@H]3C(=O)C=C4[C@@H]5C[C@@](C)(C(=O)O)CC[C@]5(C)CC[C@@]4(C)[C@]3(C)CC[C@@H]12` [Glycycrrhizin, Glycyrrhizin], the “Number” value in the assay on influenza B (setting [1]) is given as 426; with influenza B (setting [2]), 402; with influenza B (setting [3]), 273; with parainfluenza 2 (setting [1]), 265; in the assay with parainfluenza 2 (setting [2]), 257; in the assay with parainfluenza 2 (setting [3]) it was 281. Besides, the “Number” value was found to be 130 in the assay on RSV (setting [1]); 103 in the assay on RSV (setting [2]); 53 in the assay with RSV (setting [3]); 218 in the assay on influenza A (setting [1]); 175 in the assay with influenza A (setting [2]); 163 in the assay on influenza A (setting [3]). Besides, the “Number” value in the assay on parainfluenza 1 (setting [1]) is recorded as 268; in the assay on parainfluenza 1 (setting [2]), 233; with parainfluenza 1 (setting [3]), 295; in the assay on adenovirus (setting [1]), 766; in the assay on adenovirus (setting [2]), 938; with adenovirus (setting [3]), 1061. For the same compound, the results for the “Number” value in the assay with parainfluenza 3 (setting [1]), with parainfluenza 3 (setting [2]) and in the assay with parainfluenza 3 (setting [3]) were 138, 149 and 138, respectively.

These data come from patent publication US7846655B2, “Compositions and methods for detecting a non plus-stranded RNA virus” (priority 2003, dated 2010).
